The test system of one test is Prevotella intermedia. The test is described as follows: Anaerobe inhibition assay. The format is cell-based. Particulars: 2 strains, read-out: Minimum Inhibitory Concentrations (MICs).
Test [1] concerns HIV-1 strain III-B (X4 strain). The test is described as follows: Viral entry/binding inhibition assay (VBI), strain IIIB. The format is cell-based. Particulars: Human immunodeficiency virus 1, Series 2, P4-R5 cells, 2 hour incubation, read-out: 50% Effective Concentrations (IC50). As to the method:
Viral entry inhibition assay (VBI): Cell-free HIV-1 (strain III-B: X4 strain; or strain BaL: R5 strain) was incubated with compound and P4-R5 cells for 2 hours at 37° C., followed by washing and 48 hour incubation.

As to `Cc1cc(C2CCCCC2)n(O)c(=O)c1.NCCO` [CO, 6-Cyclohexyl-1-hydroxy-4-methyl-2-(1H)-pyridone ethanolamine salt], the MIC in the test with Prevotella intermedia is 40 µg/mL. Further, in test [1], the IC50 worked out at 45.5 µg/mL.

The record behind these values is patent publication US20050037033A1, “Microbicidal compositions and methods and use” (priority 2003, published 2005).
